These are literature values, as cited in PMC4738315, “How to unveil self-quenched fluorophores and subsequently map the subcellular distribution of exogenous peptides” (Scientific Reports, 2016).

The target in this data set is anionic phospholipids (DOPC/DOPG or POPC/POPG). Particulars: POPC/POPG 75:25; ref 9 (Gonçalves et al., 2005); read-out: Affinity for PLs, Kd. From the text: page 25: Supplementary Table 1: Sequences of the three studied CPPs and their respective affinities for glycosaminoglycans or anionic phospholipids. Peptide Sequence Affinity for HS, Kd, µM[a] Affinity for PLs, Kd, µM Penetratin (Pen)3 RQIKIWFQNRRMKWKK nd[b] 63 (DOPC/DOPG 90:10)4 Tat peptide (Tat)5 YGRKKRRQRRR 1.676 83 (POPC/POPG 75:25)7 Arg98 RRRRRRRRR 0.329 12 (POPC/POPG 75:25)9 [a] HS: heparan sulfate. [b] nd: not determined. 25

As for “RRRRRRRRR [Arg9, nona-arginine, nona-arginine cell-penetrating peptide]”, the dissociation constant Kd is 12 µM.

Usually Kd stands for a measure of binding affinity in units of concentration.
